Tests used:
[1] = biological target: pseudo-kinase domain (JH2) of human V617F mutant JAK2 (Homo sapiens (Human), UniProt O60674, F794H/V617F/W659A/W777A); assay: JAK2 LanthaScreen JH2-V617F Binding Assay; conditions: read-out: JH2 V617F Bind IC50
In short: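 Biotinylated His-Avi JAK2 JH2 (aa 536-812, V617F plus W659A/W777A/F794H; 0.26 nM) incubated 1 h at 25 °C with compound, 50 nM fluorescent JH2 tracer and 0.25 nM streptavidin-Tb in Tris pH 7.5 buffer. TR-FRET tracer displacement read; nonspecific binding with 2 mM ATP; IC50 from four-parameter fit.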

[2] = biological target: catalytic domain (JH1) of human JAK2 (Homo sapiens (Human), UniProt O60674); assay: JAK2 LanthaScreen JH1 Binding Assay; conditions: read-out: JH1 Bind IC50
Chain of catalytic domain (JH1) of human JAK2 (O60674 826-1132): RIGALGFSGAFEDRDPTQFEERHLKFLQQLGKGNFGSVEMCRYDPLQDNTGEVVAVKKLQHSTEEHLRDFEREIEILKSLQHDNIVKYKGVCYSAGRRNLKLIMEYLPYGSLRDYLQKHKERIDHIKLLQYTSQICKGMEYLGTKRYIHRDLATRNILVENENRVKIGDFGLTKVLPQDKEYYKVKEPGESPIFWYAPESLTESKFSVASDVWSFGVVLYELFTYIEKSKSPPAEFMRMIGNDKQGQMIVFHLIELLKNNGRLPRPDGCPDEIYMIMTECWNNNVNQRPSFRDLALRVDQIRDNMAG
In short: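 FLAG-tagged biotinylated JH1 (aa 826-1132, baculovirus-expressed), 1.5 nM, with serially diluted compound, 50 nM fluorescent tracer and 0.5 nM streptavidin-Tb in pH 7.5 Tris buffer, 2 h at 25 °C; nonspecific binding with 2 mM ATP. TR-FRET read, IC50 by four-parameter fit.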

TRKA [3] = biological target: TRKA (Homo sapiens (Human), UniProt P04629); assay: TRKA Enzymatic Assay; type: biochemical; conditions: 1 mM ATP
Chain of TRKA (Homo sapiens (Human), UniProt P04629) (P04629 33-796, species assumed): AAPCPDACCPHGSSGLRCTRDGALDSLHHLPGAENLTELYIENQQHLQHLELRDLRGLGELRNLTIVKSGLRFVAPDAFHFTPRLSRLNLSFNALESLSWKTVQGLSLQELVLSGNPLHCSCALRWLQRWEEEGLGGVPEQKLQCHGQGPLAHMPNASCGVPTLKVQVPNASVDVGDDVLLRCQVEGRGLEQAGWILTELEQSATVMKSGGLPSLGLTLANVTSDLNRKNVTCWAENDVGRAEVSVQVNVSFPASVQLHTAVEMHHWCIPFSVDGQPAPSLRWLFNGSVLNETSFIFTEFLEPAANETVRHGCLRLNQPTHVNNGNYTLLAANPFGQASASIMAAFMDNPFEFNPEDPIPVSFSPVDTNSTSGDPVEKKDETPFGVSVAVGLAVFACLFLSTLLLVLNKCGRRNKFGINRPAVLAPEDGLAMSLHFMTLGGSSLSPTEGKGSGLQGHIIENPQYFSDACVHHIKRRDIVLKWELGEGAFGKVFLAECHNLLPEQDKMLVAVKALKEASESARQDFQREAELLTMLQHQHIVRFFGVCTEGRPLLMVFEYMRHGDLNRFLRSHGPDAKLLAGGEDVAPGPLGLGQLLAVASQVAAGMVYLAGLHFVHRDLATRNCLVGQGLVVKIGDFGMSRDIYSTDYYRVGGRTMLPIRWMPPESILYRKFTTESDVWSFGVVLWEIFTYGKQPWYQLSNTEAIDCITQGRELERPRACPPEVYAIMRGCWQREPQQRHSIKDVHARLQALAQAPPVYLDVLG
In short: (§1)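 Reaction contained 0.58 nM TRKA, 1 mM ATP, 500 nM biotinylated TK substrate and 62.5 nM SEB reagent in HEPES 50 mM pH 7.0 with 10 mM MgCl2, 1 mM DTT and 0.1 mM orthovanadate, 0.5% DMSO, ATP-initiated. After 60 min at room temperature, the TR-FRET 665/620 nm ratio was read. IC50 was fitted from percent control activity versus log concentration, with DMSO and no-ATP wells as controls.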

TRKA [4] = assay: TRKA Enzymatic Assay; type: biochemical
In short: as §1

[5] = test system: STAT5 (Tyr694) phosphorylation in SET-2 cells; assay: STAT5 (Tyr694) Phosphorylation Cell Based Assay; conditions: Homo sapiens, 2 hours, read-out: SET2 IC50
In short: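 SET-2 cells in RPMI with 10% FBS were exposed to compound for 2 h at 37 °C (0.5% DMSO final). After lysis, phospho-STAT5 (Tyr694) was read by HTRF (665/620 ratio) after 24 h antibody incubation at room temperature. IC50 was fitted from percent control activity versus log concentration.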

Chain of pseudo-kinase domain (JH2) of human V617F mutant JAK2 (O60674 536-812 V617F/W659A/W777A/F794H): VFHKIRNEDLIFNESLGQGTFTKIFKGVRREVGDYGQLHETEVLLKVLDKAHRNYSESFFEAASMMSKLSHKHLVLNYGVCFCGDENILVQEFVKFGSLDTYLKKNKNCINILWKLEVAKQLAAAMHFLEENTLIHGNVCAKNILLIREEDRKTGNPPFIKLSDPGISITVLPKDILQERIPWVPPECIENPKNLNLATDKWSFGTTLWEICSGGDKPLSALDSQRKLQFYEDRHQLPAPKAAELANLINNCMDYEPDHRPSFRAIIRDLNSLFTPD

Structure (SMILES) | IC50 [1] [nM] | IC50 [2] [nM] | IC50 (TRKA [3]) [nM] | Selectivity TRKA/JH2 V617F (TRKA [4]) | IC50 [5] [nM]
CNC(=O)c1ccc(-c2[nH]c3ncc4c(c3c2-c2ccc3c(cnn3C(C)C)c2)n([C@@H]2CC[C@@H](NC(=O)OC)C2)c(=O)n4C)cc1 [Example 21, Methyl ((1R,3R)-3-(8-(1-isopropyl-1H-indazol-5-yl)-3-methyl-7-(4-(methylcarbamoyl)phenyl)-2-oxo-3,6-dihydroimidazo[4,5-d]pyrrolo[2,3-b]pyridin-1(2H)-yl)cyclopentyl)carbamate] | ≤ 10 | > 1000 | 1250 to 2500 | ****** (selectivity of >12500-fold) | 300 to 800
CCNC(=O)c1ccc(-c2[nH]c3ncc4c(c3c2-c2ccc3c(cnn3C(C)C)c2)n([C@@H]2CC[C@@H](NC(=O)OC)C2)c(=O)n4C)cc1 [Example 23, Methyl ((1R,3R)-3-(7-(4-(ethylcarbamoyl)phenyl)-8-(1-isopropyl-1H-indazol-5-yl)-3-methyl-2-oxo-3,6-dihydroimidazo[4,5-d]pyrrolo[2,3-b]pyridin-1(2H)-yl)cyclopentyl)carbamate] | ≤ 10 | > 1000 | 1250 to 2500 | ***** (selectivity of >5000-fold to ≤12500-fold) | ≤ 300
[2H]C([2H])([2H])N(Cc1ccc(-c2[nH]c3ncc4c(c3c2-c2ccc3c(c2)CC(C)(C)O3)n([C@@H]2CC[C@@H](NC(=O)OC)C2)c(=O)n4C([2H])([2H])[2H])cc1)C([2H])([2H])[2H] [Example 25, Methyl ((1R,3R)-3-(7-(4-((bis(methyl-d3)amino)methyl)phenyl)-8-(2,2-dimethyl-2,3-dihydrobenzofuran-5-yl)-3-(methyl-d3)-2-oxo-3,6-dihydroimidazo[4,5-d]pyrrolo[2,3-b]pyridin-1(2H)-yl)cyclopentyl)carbamate] | ≤ 10 | > 1000 | 250 to 1250 | **** (selectivity of >1750-fold to ≤5000-fold) | ≤ 300
[2H]C([2H])([2H])n1c(=O)n([C@@H]2CC[C@@H](NC(=O)OC)C2)c2c3c(-c4ccc5c(cnn5C(C)C)c4)c(-c4ccc(CN(C)C)cc4)[nH]c3ncc21 [Example 26, Methyl ((1R,3R)-3-(7-(4-((dimethylamino)methyl)phenyl)-8-(1-isopropyl-1H-indazol-5-yl)-3-(methyl-d3)-2-oxo-3,6-dihydroimidazo[4,5-d]pyrrolo[2,3-b]pyridin-1(2H)-yl)cyclopentyl)carbamate] | ≤ 10 | > 1000 | 1250 to 2500 | ***** (selectivity of >5000-fold to ≤12500-fold) | ≤ 300
[2H]C([2H])([2H])N(Cc1ccc(-c2[nH]c3ncc4c(c3c2-c2ccc(OCCOC)cc2)n([C@@H]2CC[C@@H](NC(=O)OC)C2)c(=O)n4C([2H])([2H])[2H])cc1)C([2H])([2H])[2H] [Example 27, Methyl ((1R,3R)-3-(7-(4-((bis(methyl-d3)amino)methyl)phenyl)-8-(4-(2-methoxyethoxy)phenyl)-3-(methyl-d3)-2-oxo-3,6-dihydroimidazo[4,5-d]pyrrolo[2,3-b]pyridin-1(2H)-yl)cyclopentyl)carbamate] | ≤ 10 | > 1000 | 1250 to 2500 | ***** (selectivity of >5000-fold to ≤12500-fold) | ≤ 300
COC(=O)N[C@@H]1CC[C@@H](n2c(=O)n(C)c3cnc4[nH]c(-c5ccc(CN(C)C)cc5)c(-c5ccc(F)cc5)c4c32)C1 [Example 28, Methyl ((1R,3R)-3-(7-(4-((dimethylamino)methyl)phenyl)-8-(4-fluorophenyl)-3-methyl-2-oxo-3,6-dihydroimidazo[4,5-d]pyrrolo[2,3-b]pyridin-1(2H)-yl)cyclopentyl)carbamate] | ≤ 10 | > 1000 | > 2500 | **** (selectivity of >1750-fold to ≤5000-fold) | 300 to 800
[2H]C([2H])([2H])N(Cc1ccc(-c2[nH]c3ncc4c(c3c2-c2ccc3c(c2)COC3(C)C)n([C@@H]2CC[C@@H](NC(=O)OC)C2)c(=O)n4C([2H])([2H])[2H])cc1)C([2H])([2H])[2H] [Example 29, Methyl ((1R,3R)-3-(7-(4-((bis(methyl-d3)amino)methyl)phenyl)-8-(1,1-dimethyl-1,3-dihydroisobenzofuran-5-yl)-3-(methyl-d3)-2-oxo-3,6-dihydroimidazo[4,5-d]pyrrolo[2,3-b]pyridin-1(2H)-yl)cyclopentyl)carbamate] | ≤ 10 | > 1000 | 1250 to 2500 | ****** (selectivity of >12500-fold) | ≤ 300
[2H]C([2H])([2H])n1c(=O)n([C@@H]2CC[C@@H](NC(=O)OC)C2)c2c3c(-c4ccc5c(c4)COC5(C)C)c(-c4ccc(C(=O)N(C)C)cc4)[nH]c3ncc21 [Example 30, methyl ((1R,3R)-3-(8-(1,1-dimethyl-1,3-dihydroisobenzofuran-5-yl)-7-(4-(dimethylcarbamoyl)phenyl)-3-(methyl-d3)-2-oxo-3,6-dihydroimidazo[4,5-d]pyrrolo[2,3-b]pyridin-1(2H)-yl)cyclopentyl)carbamate] | ≤ 10 | > 1000 | 250 to 1250 | ***** (selectivity of >5000-fold to ≤12500-fold) | ≤ 300

Source: US20250092044A1, “Kinase Inhibitors” (Incyte Corporation, priority 2023, published 2025)
